In paper PMC5224920, “Assessing the mechanism and therapeutic potential of modulators of the human Mediator complex-associated protein kinases” (eLife, 2016):

System: 12 single or co-culture in vitro tissue models of primary cells
Assay: Culture/co-culture cell model panel, extracellular biomarkers (DiscoveRx); for CCL2/MCP-1: reference of the scale not given here; for CD38: reference of the scale not given here; for CD40: reference of the scale not given here; for CD69: reference of the scale not given here; for CXCL8/IL-8: reference of the scale not given here; for CXCL9/MIG: reference of the scale not given here; for IL-1alpha: reference of the scale not given here; for M-CSF: reference of the scale not given here; for PBMC Cytotoxicity: reference of the scale not given here
Type: cell-based, human
[1] = /Mphg Huvec+macrophages, 4.12E1 nM
[2] = /Mphg Huvec+macrophages, 4.57E0 nM

Cc1n[nH]c2ncc(C(=O)N3CCC[C@H]3c3ccc(Cl)cc3)cc12 [CMPD4]
IL-1alpha [1]: -0.015 | M-CSF [1]: -0.025 | SRB [1]: -0.00546 | SRB-Mphg [1]: 0.005 | sIL-10 [1]: -0.021 | CCL2/MCP-1 [2]: -0.005 | CCL3/MIP-1alpha [2]: -0.00218 | CD40 [2]: -0.087 | CD62E/E-Selectin [2]: -0.111 | CD69 [2]: 0.012 | CD106/VCAM-1 [2]: 0.00354 | CXCL8/IL-8 [2]: -0.024 | IL-1alpha [2]: 0.018 | M-CSF [2]: -0.010 | SRB [2]: 0.001 | SRB-Mphg [2]: 0.011 | sIL-10 [2]: 0.038 | CCL2/MCP-1 (/TH2, 1.00E4 nM): -0.115 | CCL26/Eotaxin-3 (/TH2, 1.00E4 nM): -0.131 | CD38 (/TH2, 1.00E4 nM): -0.035 | CD40 (/TH2, 1.00E4 nM): -0.240 | CD62E/E-Selectin (/TH2, 1.00E4 nM): 0.049 | CD62P/P-selectin (/TH2, 1.00E4 nM): -0.00467 | CD69 (/TH2, 1.00E4 nM): -0.006 | CD87/uPAR (/TH2, 1.00E4 nM): -0.174 | CD106/VCAM-1 (/TH2, 1.00E4 nM): -0.004 | CXCL8/IL-8 (/TH2, 1.00E4 nM): -0.049 | CXCL9/MIG (/TH2, 1.00E4 nM): -0.021 | Collagen IV (/TH2, 1.00E4 nM): 0.028 | PBMC Cytotoxicity (/TH2, 1.00E4 nM): -0.00277 | SRB (/TH2, 1.00E4 nM): -0.174 | sIL-17A (/TH2, 1.00E4 nM): 0.175 | sIL-17F (/TH2, 1.00E4 nM): 0.137 | CCL2/MCP-1 (/TH2, 1.11E3 nM): -0.084 | CCL26/Eotaxin-3 (/TH2, 1.11E3 nM): -0.167 | CD38 (/TH2, 1.11E3 nM): -0.006 | CD40 (/TH2, 1.11E3 nM): -0.166 | CD62E/E-Selectin (/TH2, 1.11E3 nM): 0.083 | CD62P/P-selectin (/TH2, 1.11E3 nM): -0.044 | CD69 (/TH2, 1.11E3 nM): 0.041 | CD87/uPAR (/TH2, 1.11E3 nM): -0.190 | CD106/VCAM-1 (/TH2, 1.11E3 nM): 0.034 | CXCL8/IL-8 (/TH2, 1.11E3 nM): -0.084 | CXCL9/MIG (/TH2, 1.11E3 nM): -0.034 | Collagen IV (/TH2, 1.11E3 nM): -0.00538 | PBMC Cytotoxicity (/TH2, 1.11E3 nM): -0.052 | SRB (/TH2, 1.11E3 nM): -0.084 | sIL-17A (/TH2, 1.11E3 nM): 0.045 | sIL-17F (/TH2, 1.11E3 nM): 0.003 | CCL2/MCP-1 (/TH2, 1.23E2 nM): -0.100 | CCL26/Eotaxin-3 (/TH2, 1.23E2 nM): -0.152 | CD38 (/TH2, 1.23E2 nM): -0.00143 | CD40 (/TH2, 1.23E2 nM): -0.162 | CD62E/E-Selectin (/TH2, 1.23E2 nM): 0.078 | CD62P/P-selectin (/TH2, 1.23E2 nM): -0.060 | CD69 (/TH2, 1.23E2 nM): 0.046 | CD87/uPAR (/TH2, 1.23E2 nM): -0.227 | CD106/VCAM-1 (/TH2, 1.23E2 nM): 0.025 | CXCL8/IL-8 (/TH2, 1.23E2 nM): -0.055 | CXCL9/MIG (/TH2, 1.23E2 nM): -0.030 | Collagen IV (/TH2, 1.23E2 nM): -0.013 | PBMC Cytotoxicity (/TH2, 1.23E2 nM): 0.007 | SRB (/TH2, 1.23E2 nM): -0.061 | sIL-17A (/TH2, 1.23E2 nM): 0.043 | sIL-17F (/TH2, 1.23E2 nM): 0.061 | CCL2/MCP-1 (/TH2, 1.37E1 nM): -0.029 | CCL26/Eotaxin-3 (/TH2, 1.37E1 nM): -0.152 | CD38 (/TH2, 1.37E1 nM): 0.015 | CD40 (/TH2, 1.37E1 nM): -0.156 | CD62E/E-Selectin (/TH2, 1.37E1 nM): 0.024 | CD62P/P-selectin (/TH2, 1.37E1 nM): -0.040 | CD69 (/TH2, 1.37E1 nM): 0.016 | CD87/uPAR (/TH2, 1.37E1 nM): -0.193 | CD106/VCAM-1 (/TH2, 1.37E1 nM): 0.020 | CXCL8/IL-8 (/TH2, 1.37E1 nM): -0.050 | CXCL9/MIG (/TH2, 1.37E1 nM): 0.013 | Collagen IV (/TH2, 1.37E1 nM): 0.018 | PBMC Cytotoxicity (/TH2, 1.37E1 nM): -0.060 | SRB (/TH2, 1.37E1 nM): -0.037 | sIL-17A (/TH2, 1.37E1 nM): -0.008 | sIL-17F (/TH2, 1.37E1 nM): 0.096 | CCL2/MCP-1 (/TH2, 3.33E3 nM): -0.125
